Consider one compound from patent publication US9051240B2, “Substituted 2-[2-(phenyl) ethylamino] alkaneamide derivatives and their use as sodium and/or calcium channel modulators” (Newron Pharmaceuticals S.P.A., priority 2007, dated 2015).

The term IC50 denotes the concentration that gives 50% inhibition.

The subject of assay [1] is TTXs sodium channels. Put plainly: TTXs-sodium channel influx assay (fluorescence, ND7/23 cell line). Format: cell-based, rat. The following applies: ND7/23 cells, veratridine 100 μM; read-out: Na+ influx IC50. As for the experimental part:
ND7/23 rat dorsal root ganglion-derived cell line endogenously expresses a mixed population of TTXs sodium channels. These cells lack of TTXr sodium channels as shown by the absence of their respective transcripts.
ND7/23 cells were grown in DMEM supplemented with 10% FBS and 1 mM sodium piruvate. The cells were seeded at 50,000 cells/well on 96 poly-L-lysine-coated plates and further incubated for 18-24 h before use.
The Membrane Potential Kit Assay (Molecular Devices), based on a negatively charged fluorescent dye able to monitor changes in membrane potential caused by the sodium influx due to the channel opening, was used for the assay.
Cells were incubated with the dye loading for 30 minutes at 25° C. Then, 100 nM of the toxin Anemonia sulcata (used as enhancer of the channel opener response) alone or in the presence of TTX (as reference standard) or test compound were added for further 15 minutes.
The fluorescence (excitation:530 nm, emission: 565 nm wavelength) was measured before and after (40-45 s) the automated injection of the sodium channel opener veratridine (100 μM) using a Victor plate reader (Perkin Elmer).
(§1) The inhibition curves were calculated from 5 concentrations, each in triplicate, and the IC50 determined using linear regression analysis.

The test system of assay [2] is mice. Briefly: Maximal electroshock test (MES) in mice. Format: in vivo. The following applies: Mus musculus, iv; mice, MES, i.v.; read-out: MES ED50 mg/kg i.v. From the text: The maximal electroshock test (MES) is used commonly in the screening of anti-epileptic drugs in rodent models.
Animals and Apparatus: Male CD1 mice weighing 25 g were used. The procedure described by White et al. (White H. S., Woodhead J. H., Franklin M. R., Swinyard E. A., and Wolf H. H. Antiepileptic Drugs (1995) 4th ed: 99-110, Raven Press, Ltd., New York) was followed. An Ugo Basile electroconvulsive generator (Model ECT UNIT 7801) was used to deliver an electrical stimulus sufficient to produce a hindlimb tonic extensor response in at least 97% of control animals. The stimulus was delivered intra-aurally through clip electrodes in mice (0.7 s of a 40 mA shock, with a pulse train of 80 Hz having a pulse duration of 0.4 ms). The acute effect of compounds administered intraperitoneally (i.p.), subcutaneously (s.c.), intravenously (i.v.) or orally (p.o.) 5-120 minutes before MES induction were examined and compared with a vehicle control group. Ten mice were studied per group. Complete suppression of the hindlimb tonic extensor component of seizures was taken as evidence of anticonvulsant activity.
The compounds of the invention were administered p.o. or i.v., at the doses of 0.1-100 mg/kg.

The subject of assay [3] is L-type calcium channels. Briefly: Calcium channel influx assay (fluorescence, AtT20 cell line). Format: cell-based, mouse. The following applies: AtT20 cells, 100 mM KCl depolarization; read-out: Ca++ influx IC50. As for the experimental part:
AtT20/D16v-F2 mouse pituitary tumour cell line preferentially expresses L-type calcium channels.
AtT20 cells were grown in DMEM with 10% of FBS, 4 mM glutamine. The cells were seeded at 200,000 cells/well on 96 poly-L-lysine-coated plates and further incubated for 18-24 h, before use.
The Ca^++ Kit Assay (Molecular Devices), which is based on a fluorescent calcium indicator to detect the calcium influx determined by depolarizing conditions, was used for the assay.
Cells were incubated with the calcium dye loading for 30 min at 37° C. Then, ω-conotoxin alone (1 μM) or in presence of nifedipine (as reference standard) or test compound were added for further 15 min.
The fluorescence (excitation: 485-emission: 535 nm wavelength) was measured before and after (30-40 sec) the automated injection of 100 mM KCl depolarizing solution using a Victor plate reader (Perkin Elmer).
as §1

In assay [4] the target is MAO-B (Rattus norvegicus (Rat), UniProt P19643). Briefly: In vitro MAO-B enzyme activity assay (radioenzymatic, rat brain mitochondria). Format: biochemical. The following applies: 14C-PEA 0.5 μM. As for the experimental part:
Male Wistar rats (Harlan, Italy weighing 175-200 g) were sacrificed under light anaesthesia and brains were rapidly removed and homogenized in 8 volumes of ice-cold 0.32 M sucrose buffer containing 0.1 M EDTA, pH 7.4. The crude homogenate was centrifuged at 2220 rpm for 10 minutes and the supernatant recovered. The pellet was homogenized and centrifuged again. The two supernatants were pooled and centrifuged at 9250 rpm for 10 minutes at +4° C. The pellet was resuspended in fresh buffer and centrifuged at 11250 rpm for 10 minutes at +4° C. The resulting pellet was stored at −80° C. The enzyme activity was assessed with a radioenzymatic assay using the substrate ^14C-phenylethylamine (PEA) specific for MAO-B. The mitochondrial pellet (500 μg protein) was resuspended in 0.1 M phosphate buffer (pH 7.4). 200 μl of the suspension were added to a 50 μl solution of the test compound or buffer, and incubated for 30 min at 37° C. (preincubation) then the substrate (50 μl) was added. The incubation was carried out for 10 minutes at 37° C. (^14C-PEA, 0.5 μM). The reaction was stopped by adding 0.2 ml of perchloric acid. After centrifugation, the deaminated metabolites were extracted with 3 ml of toluene and the radioactive organic phase containing the neutral and/or acidic metabolites formed as a result of MAO-B activity was measured by liquid scintillation spectrometry at 90% efficiency. The MAO-B activity was expressed as nmoles of substrate transformed/mg protein/min.

The subject of assay [5] is mice. Put plainly: Formalin test. The following applies: Mus musculus, po. The class given is in vivo. The method, then:
According to a modified protocol from Rosland et al. (Rosland J. H., Tjolsen A., Maehle B., Hole K. Pain (1990) 42: 235-242), mice were injected subcutaneously (s.c.) with 20 μl of 2.7% solution of formalin into the plantar surface of left hindpaw and placed immediately into clear PVC observation chambers (23×12×13 cm). Pain behaviour was quantified by counting the cumulative licking time (s) of the injected paw. Measurements were taken during the early phase (0-5 min) and late phase (20-40 min) after formalin injection (Tjolsen A., Berge O. G., Hunskaar S., Rosland J. H., Hole K. Pain (1992) 51: 5-17).
The test compound was administered p.o. or s.c. 5-45 minutes before formalin injection in a volume of 10 ml/kg body weight to groups of 10 mice per dose. Control group was treated with vehicle.

The target in assay [6] is Na+ currents in rat cortical neurons. Briefly: Patch clamp evaluation of Na+ currents blockade in rat cortical neurons. Format: cell-based. As for the experimental part:
Cortical neurons were prepared from embryonic Wistar rats (E17-E19). A female rat at date 17-19 of pregnancy was anesthetized and sacrificed. The fetuses (n=4-5) were dissected and placed in ice-cold Hank's solution (Hank's solution (Life tech.14170-088)+glucose 30%+Pen-Strep 100× (Life Tech. 15140-122) 100U-100 μg/ml and Hepes-NaOH 5 mM). The uterus and placenta were removed, the fetuses were decapitated and the heads were placed in ice-cold Hank's solution. Cells were counted and diluted in Neurobasal medium to a concentration of 400000 cells per poly-D-lysine 5 μg/ml treated Petri dish. Cortical neurons were used from day 6th till day 11th after plating, and once a week Neurobasal medium was changed. Experiments on cortical neurons were carried out using standard whole cell patch clamp methods (Hamill et al., Pfugers Arch., 1981 August, 391(12), 85-100). Membrane currents were recorded and filtered at 5 kHz with an Axon Axopatch 200B amplifier and data digitized with an Axon Digidata 1322A (Axon Instruments, CA, USA). Protocol playing and data acquisition were controlled online with Axon pClamp8 software. Measuring and reference electrodes were AgCl-Ag electrodes. A Sutter Instrument P-87 Puller (CA, USA) was used for pulling patch clamp pipettes with a resistance of 2-3 MΩ from Harward borosilicate glass tubes. Cells were continuously superfused with extracellular solutions, using a solution changer Biologic RSC-200. To test the effect of compounds on sodium currents in cortical neurons, cells were clamped at -90 mV, then a two step protocol was used to determine the voltage dependence of the block. […] Tonic block of resting and depolarized currents at a given drug concentration, was calculated as the difference between the peak Na^+ current in the control external bath solution and peak currents with the test substance divided by control peak. Drug concentration-inhibition curves were obtained by plotting tonic blocks in the resting and depolarized condition, versus drug concentrations. Dose-response curves were fitted to the tonic block data, according to the logistic equation: […] Control bath solution contained (mM): […] Internal pipette solution consisted of (mM): […] Compounds were dissolved as stock solutions (20 mM) in DMSO. They were diluted to the final concentrations in the external solution.
On the technique in general: In patch-clamp work, channel activity is measured electrically.

Read-outs that look alike come from different tables or passages of the source.

MAO-B, sequence (P19643 whole entry): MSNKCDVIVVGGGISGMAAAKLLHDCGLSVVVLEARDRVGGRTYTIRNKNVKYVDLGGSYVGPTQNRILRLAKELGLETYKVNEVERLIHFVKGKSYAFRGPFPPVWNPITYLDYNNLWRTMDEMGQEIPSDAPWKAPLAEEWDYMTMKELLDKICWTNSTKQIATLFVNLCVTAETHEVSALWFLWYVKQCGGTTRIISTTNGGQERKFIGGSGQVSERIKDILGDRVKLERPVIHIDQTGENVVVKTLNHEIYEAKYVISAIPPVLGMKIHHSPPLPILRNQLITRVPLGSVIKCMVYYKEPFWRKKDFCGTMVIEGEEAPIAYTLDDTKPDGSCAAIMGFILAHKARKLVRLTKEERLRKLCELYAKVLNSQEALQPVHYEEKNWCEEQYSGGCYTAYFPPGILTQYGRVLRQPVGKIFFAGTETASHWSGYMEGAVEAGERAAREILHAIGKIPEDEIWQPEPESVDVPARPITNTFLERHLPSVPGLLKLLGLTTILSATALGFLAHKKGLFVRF

Regarding `C[C@H](NCc1ccc(OCc2cccc(F)c2)cc1)C(N)=O` [safinamide, (S)-(+)-2-[4-(3-fluorobenzyloxy)-benzylamino]-propanamide], the IC50 in assay [1] was 7.4 µM; in assay [3], 33 µM; in assay [4] it was 0.1 µM; in assay [6] (preconditioning potential -110 mV, read-out: IC50 resting (Kr)), greater than 100 µM; in assay [6] (preconditioning potential ~-50 mV, read-out: IC50 depolarized), 7 µM; in assay [6] (resting condition, figure in parentheses after >100, read-out: IC50 resting (Kr), value in parentheses), 180 µM. Besides, the figures for the ED50 in assay [2] and in assay [5] were 4 mg/kg and 69.4 mg/kg, respectively. The Ki in assay [6] (calculated from Kr and Kdep, read-out: Ki (apparent affinity for the inactivated state)) was 3.6 µM.
